pIC50: −log10 of the molar value.
biological target: T1, K103NNY181C mutant reverse transcriptase (Human immunodeficiency virus type 1 group M subtype B, UniProt P04585, K690N/Y768C); test: Reverse transcriptase enzymatic assay (PicoGreen), K103N/Y181C mutant RT; type: biochemical, HIV-1; details: IC50 mut (nM), mutant (K103N/Y181C) reverse transcriptase, enzymatic assay of Example 24
T1 construct: mutations that occur in the reverse transcriptase segment of the pol gene
Summary of the method: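 PicoGreen fluorescence (ex 485, em 520 nm) quantified product after EDTA stop. Reaction ran 50 min at 37 °C in pH 7.8 Tris/HCl buffer, 1% DMSO, with poly rC/dG15 template-primer (45/4.5 nM), 3.6 μM dGTP, 2.5 nM enzyme; inhibitor 10 μM–0.508 nM final after 15 min room-temperature pre-incubation.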

Compound | IC50
CCOC(=O)c1ccc(NC(=O)Nc2ccc(NC(=O)CSc3nnnn3-c3ccc(C(C)(C)C)cc3Cl)c(Cl)c2)cc1 [Compound 7006] | 74 nM
CN(C)c1ccc(CC(=O)Nc2ccc(NC(=O)CSc3nnnn3-c3ccc(C(C)(C)C)cc3Cl)c(Cl)c2)cc1 [Compound 7037] | 236 nM
CC(C)(C)c1ccc(-n2nnnc2SCC(=O)Nc2ccc(NS(=O)(=O)c3cccs3)cc2Cl)c(Cl)c1 [Compound 7007] | 331 nM
COC(C(=O)Nc1ccc(NC(=O)CSc2nnnn2-c2ccc(C(C)(C)C)cc2Cl)c(Cl)c1)c1ccccc1 (stereo not drawn) [Compound 7039] | 89.5 nM
CC(C)(C)c1ccc(-n2nnnc2SCC(=O)Nc2ccc(NC(=O)Cc3cccnc3)cc2Cl)c(Cl)c1 [Compound 7031] | 43 nM

same assay, conditions: IC50 mut, K103N/Y181C mutant reverse transcriptase, enzymatic assay of Example 24

Compound | pIC50
CC(=O)NNC(=O)COC(C)(C)C#Cc1ccc(NC(=O)CSc2nnnn2-c2ccc(C(C)(C)C)cc2Cl)c(Cl)c1 [Compound 4043] | 7.46
CC(C)(C#Cc1ccc(NC(=O)CSc2nnnn2-c2ccc(C3CC3)cc2Cl)c(Cl)c1)C(=O)NCc1cc[n+]([O-])cc1 [Compound 4148] | 7.96
CC(C)(C#Cc1ccc(NC(=O)CSc2nnnn2-c2ccc(C(C)(C)C)cc2Cl)c(Cl)c1)OCC(=O)NNC(N)=O [Compound 4056] | 7.59
CC(C)(C#Cc1ccc(NC(=O)CSc2nnnn2-c2ccc(C3CC3)cc2Cl)c(Cl)c1F)OCCOc1ccc[n+]([O-])c1 [Compound 4215] | 7.25
CC(C)(C)c1ccc(-n2nnnc2SCC(=O)Nc2ccc(C#CCCC(=O)O)cc2Cl)c(Cl)c1 [Compound 4102] | 7.61
CC(C)(C#Cc1ccc(NC(=O)CSc2nnnn2-c2ccc(C3CC3)cc2Cl)c(Cl)c1)C(=O)N1CCC(C(=O)O)CC1 [Compound 4149] | 7.78
CC(C)(C#Cc1ccc(NC(=O)CSc2nnnn2-c2ccc(C3CC3)cc2Cl)c(Cl)c1)NC(=O)c1ccc[n+]([O-])c1 [Compound 4191] | 8.32
CC(C)(C#Cc1ccc(NC(=O)CSc2nnnn2-c2ccc(C(C)(C)C)cc2Cl)c(Cl)c1)OCC(=O)O [Compound 4020] | 7.48
O=C(CSc1nnnn1-c1ccc(C2CC2)cc1Cl)Nc1ccc(C#CCCN2CCCC2)cc1Cl [Compound 4132] | 7.31
CN(C)CCNC(=O)COC(C)(C)C#Cc1ccc(NC(=O)CSc2nnnn2-c2ccc(C(C)(C)C)cc2Cl)c(Cl)c1 [Compound 4047] | 7.18
C[C@H](CC(=O)O)C(=O)NC(C)(C)C#Cc1ccc(NC(=O)CSc2nnnn2-c2ccc(C3CC3)cc2Cl)c(Cl)c1 [Compound 4239] | 8.09
CN1CCN(CCOC(C)(C)C#Cc2ccc(NC(=O)CSc3nnnn3-c3ccc(C4CC4)cc3Cl)c(Cl)c2)CC1 [Compound 4105] | 7.18
CN1CCN(C(=O)NC(C)(C)C#Cc2ccc(NC(=O)CSc3nnnn3-c3ccc(C4CC4)cc3Cl)c(Cl)c2)CC1 [Compound 4229] | 7.82
CC(C)(C#Cc1ccc(NC(=O)CSc2nnnn2-c2cc(C(F)(F)F)ccc2Cl)c(Cl)c1F)C(=O)O [Compound 4101] | 7.24
CC(C)(C)c1ccc(-n2nnnc2SCC(=O)Nc2ccc(C#CCCCCO)cc2Cl)c(Cl)c1 [Compound 4003] | 6.19
CC(C)(N)C#Cc1ccc(NC(=O)CSc2nnnn2-c2ccc(C3CC3)cc2Cl)c(Cl)c1F [Compound 4151] | 7.65
CN(C)CCCNC(=O)C(C)(C)C#Cc1ccc(NC(=O)CSc2nnnn2-c2ccc(CC3CC3)cc2Cl)c(Cl)c1 [Compound 4245] | 6.34
O=C(CSc1nnnn1-c1ccc(C2CC2)cc1Cl)Nc1ccc(C#CC2(CN3CCC(O)CC3)CC2)cc1Cl [Compound 4096] | 7.43
CC(C)(C#Cc1ccc(NC(=O)CSc2nnnn2-c2ccc(CC3CC3)cc2Cl)c(Cl)c1)C(=O)O [Compound 4240] | 6.76
CC(C)(C#Cc1ccc(NC(=O)CSc2nnnn2-c2ccc(C(C)(C)C)cc2Cl)c(Cl)c1)OCC(=O)NCCO [Compound 4048] | 7.59
Cc1cc(-n2nnnc2SCC(=O)Nc2ccc(C#CC(C)(C)O)cc2Cl)c(Cl)c(C(F)(F)F)c1 [Compound 4031] | 6.58
Cc1ccc(-n2nnnc2SCC(=O)Nc2ccc(C#CC(C)(C)O)cc2Cl)c(Cl)c1C(F)(F)F [Compound 4059] | 6.18
CCC(C#Cc1ccc(NC(=O)CSc2nnnn2-c2ccc(C3CC3)cc2Cl)c(Cl)c1)(CC)NC(=O)OC(C)(C)C [Compound 4066] | 6.14

same assay, conditions: IC50 mut, mutant reverse transcriptase, enzymatic assay of Example 24

Compound | pIC50
CC(C)(C)c1ccc(-n2nnnc2SCC(=O)Nc2ccc(C(=O)Nc3ccncc3)cc2Cl)c(Cl)c1 [Compound 6029] | 7.66
CCN(CC)CCOc1ccc(-c2ccc(NC(=O)CSc3nnnn3-c3ccc(C(C)(C)C)cc3Cl)c(Cl)c2)cc1 [Compound 2024] | 7.59
CN(C)c1ccc(NC(=O)c2ccc(NC(=O)CSc3nnnn3-c3ccc(C(C)(C)C)cc3Cl)c(Cl)c2)cc1 [Compound 6012] | 7.33
CC(C)(C)c1ccc(-n2nnnc2SCC(=O)Nc2ccc(OCC(=O)Nc3ccccc3C(=O)O)cc2Cl)c(Cl)c1 [Compound 5010] | 6.40
Cc1cc(F)c(-n2nnnc2SCC(=O)Nc2ccc(-c3ccc(C(C)(C)C(=O)O)cc3)cc2Cl)c(Cl)c1 [Compound 2026] | 7.32
COC(=O)C=C(C)c1ccc(NC(=O)CSc2nnnn2-c2ccc(C3CC3)cc2Cl)c(Cl)c1 [Compound 3044] | 7.23
CC(C)(C)c1ccc(-n2nnnc2SCC(=O)Nc2ccc(S(=O)(=O)NCCc3ccccc3)cc2Cl)c(Cl)c1 [Compound 3024] | 6.29
CC(C)(C)c1ccc(-n2nnnc2SCC(=O)Nc2ccc(C(=O)NCCC(=O)O)cc2Cl)c(Cl)c1 [Compound 6024] | 7.39
CC(C)(C)c1ccc(-n2nnnc2SCC(=O)Nc2ccc(-c3ccc(OCC(=O)O)cc3Cl)cc2Cl)c(Cl)c1 [Compound 3009] | 6.81
Cc1nnc(SCC(=O)Nc2ccc(-c3ccc(OCCN4CCCC4)cc3)cc2Cl)n1-c1ccc(C2CC2)cc1Cl [Compound 1014] | 7.09
CC(C)(C)c1ccc(-n2nnnc2SCC(=O)Nc2ccc(OCC(=O)NCCN3CCOCC3)cc2Cl)c(Cl)c1 [Compound 5007] | 6.61
CC(C)(C)c1ccc(-n2nnnc2SCC(=O)Nc2ccc(-c3ccc(OCCN4CCC(O)CC4)cc3)cc2Cl)c(Cl)c1 [Compound 2031] | 7.47
CC(C)(C)c1ccc(-n2nnnc2SCC(=O)Nc2ccc(-c3ccc(OCCn4ccnc4)cc3)cc2Cl)c(Cl)c1 [Compound 2036] | 7.17
O=C(CSc1nnnn1-c1ccc(C2CC2)cc1Cl)Nc1ccc(S(=O)(=O)N2CCC(C(=O)O)CC2)cc1Cl [Compound 3042] | 6.41
CC(C)(C)c1ccc(-n2nnnc2SCC(=O)Nc2ccc(C(=O)Nc3ccc(N4CCOCC4)cc3)cc2Cl)c(Cl)c1 [Compound 6006] | 7.34
CC(C)(C)c1ccc(-n2nnnc2SCC(=O)Nc2ccc(OCC(=O)NCC(=O)O)cc2Cl)c(Cl)c1 [Compound 5020] | 6.79
CC(C)(C)c1ccc(-n2nnnc2SCC(=O)Nc2ccc(S(=O)(=O)NCc3ccccc3)cc2Cl)c(Cl)c1 [Compound 3028] | 6.36
CC(C)(C)c1ccc(-n2nnnc2SCC(=O)Nc2ccc(OCC(=O)NN3CCOCC3)cc2Cl)c(Cl)c1 [Compound 5006] | 6.43
Cc1cc(C)c(-n2nnnc2SCC(=O)Nc2ccc(-c3ccc(CC(=O)O)cc3)cc2Cl)c(Cl)c1 [Compound 2021] | 7.70
CN1CCN(C(=O)c2ccc(NC(=O)CSc3nnnn3-c3ccc(C(C)(C)C)cc3Cl)c(Cl)c2)CC1 [Compound 6004] | 6.40

— patent publication US7517998B2, “Non nucleoside reverse transcriptase inhibitors” (priority 2004, dated 2009)
